# Laboratory results reported in patent US9433228B2, “Method for the production of multiple-unsaturated fatty acids in transgenic organisms” (BASF Plant Science GmbH, priority 2003, dated 2016).
# Read-outs that look alike come from different tables or passages of the source.
# Legend:
# PtELO6 (Δ6-elongase) = assay: PtELO6 expressed in yeast, feeding experiment; settings: for conversion of fatty acid fed: fed to yeast with pYES2-PtELO6; for % Elongation: fatty acid added at 250 μm
# Procedure: The PCR products were incubated for 30 minutes at 21° C. with the yeast expression vector pYES2.1-TOPO (Invitrogen) following the manufacturer's instructions. The PCR product (see SEQ ID NO: 192) was ligated into the vector by means of a T-overhang and the activity of a topoisomerase (Invitrogen). After the incubation, E. coli DH5α cells were transformed. Suitable clones were identified by PCR, the plasmid DNA was isolated by means of the Qiagen DNAeasy kit and verified by sequencing. The correct sequence was then transformed into the Saccharomyces strain INVSc1 (Invitrogen) by electroporation (1500 V). As a control, the blank vector pYES2.1 was transformed in parallel. Thereafter, the yeasts were plated of minimal dropout uracil medium supplemented with 2% glucose. Cells which were capable of growing in the medium without uracil thus comprise the corresponding plasmids pYES2.1 and pYES2.1-PtELO6. After the selection, in each case two transformants were chosen for the further functional expression.
# The yeast cells from the main cultures were harvested by centrifugation (100×g, 5 min, 20° C.) and washed with 100 mM NaHCO3, pH 8.0 to remove residual medium and fatty acids. Starting with the yeast cell sediments, fatty acid methyl esters (FAMEs) were prepared by acid methanolysis. To this end, the cell sediments were incubated for one hour at 80° C. together with 2 ml of 1 N methanolic sulfuric acid and 2% (v/v) of dimethoxypropane. The FAMEs were extracted twice with petroleum ether (PE). To remove nonderivatized fatty acids, the organic phases were washed in each case once with 2 ml of 100 mM NaHCO3, pH 8.0 and 2 ml of distilled water. Thereafter, the PE phases were dried with Na2SO4, evaporated under argon and taken up in 100 μl of PE. The samples were separated on a DB-23 capillary column (30 m, 0.25 mm, 0.25 μm, Agilent) in a Hewlett-Packard 6850 gas chromatograph equipped with flame ionization detector. The conditions for the GLC analysis were as follows: the oven temperature was programmed from 50° C. to 250° C. with a rate of 5° C./min and finally 10 min at 250° C. (holding).
# The signals were identified by comparing the retention times with corresponding fatty acid standards (Sigma).
# Feeding experiment: fatty acids (in bold) were added at in each case 250 μm.
# The yeasts which had been transformed with the vector pYES2-PtELO6 were grown in minimal medium in the presence of the fatty acids stated. The fatty acid methyl esters were synthesized by subjecting intact cells to acid methanolysis. Thereafter, the FAMEs were analyzed via GLC.
# OtElo2.1 (Δ6-elongase) = type: cell-based, Ostreococcus tauri
# TpELO3 (Δ6-elongase) = type: cell-based, Thalassiosira pseudonana
# [1] = test system: Δ6-desaturase OtDes6.1, Δ6-elongase PSE1 and Δ5-desaturase PtD5; assay: Reconstitution of ARA and EPA pathways in yeast: OtDes6.1 with PSE1 and PtD5; type: cell-based, Saccharomyces cerevisiae; settings: for elongation by Δ6-elongase PSE1 to DHGLA and DHSTA: products of OtDes6.1 from LA and ALA (FIG. 21)
# Source text: The subsequent desaturation by the Δ5-desaturase PtD5 to give ARA and EPA, respectively, is also problem-free. Approximately 25-30% of the elongase product is desaturated (FIGS. 21 B and D).
# TL16y2 = TL16y2 expressed in yeast, feeding experiments; type: cell-based, Thraustochytrium ssp.; settings: in comparison with the control
# Procedure: The substrate specificity of BioTaurELO1 was determined after expression and feeding of various fatty acids (FIG. 6). […] After the fatty acids had been extracted from the yeasts, they were transmethylated and separated by gas chromatography. The elongation products obtained from the two fatty acids which had been fed are identified by arrows.
# The functionality and substrate specificity of TL16y2 was determined after expression and feeding of various fatty acids. […] The feeding experiments were carried-out in the same manner as described for BioTaurELO1. The substrates fed can be detected in large amounts in all transgenic yeasts. […] This means that functional expression of the gene TL16y2 has been possible.
# OtElo2 (Δ6-elongase) = type: cell-based, Ostreococcus tauri
# OmElo3 = OmElo3 expressed in yeast, feeding of fatty acids, GC of FAMEs; type: cell-based, Oncorhynchus mykiss; settings: yeast with pYes3-OmElo3 and blank vector pYes2, fed 20:5 ω3
# OtElo1 (Δ5-elongase) = type: cell-based, Ostreococcus tauri; settings: Table 15; yeast with pOTE1
# OtElo1.2 (Δ5-elongase) = type: cell-based, Ostreococcus tauri; settings: Table 15; yeast with pOTE1.2
# TpELO1 (Δ5-elongase) = assay: TpELO1 expressed in yeast, feeding experiments; settings: 250 μM fatty acid fed
# Procedure: The PCR products were incubated for 30 minutes at −21° C. with the yeast expression vector pYES2.1-TOPO (Invitrogen) following the manufacturer's instructions. The PCR product was ligated into the vector by means of a T-overhang and the activity of a topoisomerase (Invitrogen). After the incubation, E. coli DH5α cells were transformed. Suitable clones were identified by PCR, the plasmid DNA was isolated by means of the Qiagen DNAeasy kit and verified by sequencing. The correct sequence was then transformed into the Saccharomyces strain INVSc1 (Invitrogen) by electroporation (1500 V). As a control, the blank vector pYES2.1 was transformed in parallel. Thereafter, the yeasts were plated out on minimal dropout uracil medium supplemented with 2% glucose. Cells which were capable of growing in the medium without uracil thus comprise the corresponding plasmids pYES2.1, pYES2.1-TpELO1, pYES2.1-ELO2 and pYES2.1-TpELO3. After the selection, in each case two transformants were chosen for the further functional expression.
# The yeast cells from the main cultures were harvested by centrifugation (100×g, 5 min, 20° C.) and washed with 100 mM NaHCO3, pH 8.0 to remove residual medium and fatty acids. […]
# The yeasts which had been transformed with the vector pYES2-TpELO1 were grown in minimal medium in the presence of the fatty acids stated. […] Thereafter the FAMEs were analyzed by GLC.
# ELO(Ci) = ELO(Ci) expressed in yeast, conversion of starting materials; type: cell-based, Ciona intestinalis; settings: fed at in each case 250 μM
# Procedure: (holding). […] Biochem. […] Thereafter, the FAMEs were analyzed via GLC.
# ELO(XI) = ELO(XI) expressed in yeast, conversion of starting materials; type: cell-based, Xenopus laevis; settings: fed at in each case 250 μM
# Procedure: Thereafter, the FAMEs were analyzed via GLC.
# [2] = test system: OmElo3, EgD4 and P. tricornutum Δ5-desaturase (PtD5); assay: Reconstitution of DHA synthesis in yeast: coexpression of OmElo3, EgD4 and PtD5; type: cell-based, Saccharomyces cerevisiae; settings: fed 18:4 ω3
# Procedure: The reconstitution of the biosynthesis of DHA (22:6 ω3) was carried out starting from EPA (20:5 ω3) or stearidonic acid (18:4 ω3) by coexpressing OmElo3 together with the Euglena gracilis Δ4-desaturase or the Phaeodactylum tricomutum Δ5-desaturase and the Euglena gracilis Δ4-desaturase. To this end, the expression vectors pYes2-EgD4 and pESCLeu-PtD5 were additionally constructed. The abovementioned yeast strain which is already transformed with pYes3-OtElo3 (SEQ ID NO: 55), was transformed further with pYes2-EgD4, or simultaneously with pYes2-EgD4 and pESCLeu-PtD5. […] The cultures were incubated for a further 120 hours at 15° C.
# In a further coexpression experiment, OmElo3, EgD4 and a P. tricornutum Δ5-desaturase (PtD5) were expressed together. The transgenic yeasts were fed stearidonic acid (18:4 ω3) and they were analyzed (FIG. 4). The fatty acid fed, 18:4 ω3, was elongated by OmElo3 to give 20:4 ω3 (60% elongation). The latter was desaturated by PtD5 to give 20:5 ω3. The PtD5 activity was 15%. Moreover, it was possible to elongate 20:5 ω3 by OmElo3 to give 22:5 ω3. Thereafter, the newly synthesized 22:5 ω3 was desaturated to 22:6 ω3 (DHA). Up to 0.7% of DHA was obtained in these experiments.
# At3g06470 = At3g06470 expressed in yeast, elongation of EPA; settings: feeding with 250 uM EPA
# Source text: (§1) To characterize the function of the A. thaliana desaturases, the open reading frame of the DNA in question is cloned downstream of the galactose-inducible GALL promoter of pYES2.1/V5-His-TOPO (Invitrogen), giving rise to the corresponding pAt60 and pAt70 clones.
# (§2) The Saccharomyces cerevisiae strain 334 is transformed with the vectors pAt60 and pAt70, respectively by electroporation (1500 V). A yeast which is transformed with the blank vector pYES2.1 is used for control purposes. The transformed yeasts are selected on complete minimal medium (CMdum) agar plates supplemented with 2% glucose, but lacking uracil. After the selection, in each case three transformants are chosen for the further functional expression.
# (§3) To express the At elongases, precultures of in each case 5 ml of CMdum liquid medium supplemented with 2% (w/v) raffinose, but without uracil, were inoculated with the selected transformants and incubated for 2 hours at 30° C., 200 rpm.
# (§4) 5 ml of CMdum liquid medium (without uracil) supplemented with 2% of raffinose and 300 μM various fatty acids were then inoculated with the precultures to an OD600 of 0.05. Expression was induced by the addition of 2% (w/v) galactose. The cultures were incubated for a further 96 hours at 20° C. […]
# At3g06460 = At3g06460 expressed in yeast, elongation of EPA; settings: feeding with 250 uM EPA
# Source text: as §1, §2, §3, §4
# OmELO2 = OmELO2 expressed in yeast, feeding of fatty acids; type: cell-based, Oncorhynchus mykiss; settings: expression in yeast
molecule,measurement,setting,value
CCCCCCC=CCCCCCCCCCC(=O)O [18:1^Δ11],conversion of fatty acid fed,PtELO6 (Δ6-elongase),not converted
"CCCCC/C=C\C/C=C\CCCCCCCC(=O)O [18:2^Δ9,12, linoleic acid]",% Elongation,PtELO6 (Δ6-elongase),0.99%
"CCCCC/C=C\C/C=C\C/C=C\CCCCC(=O)O [18:3^Δ6,9,12, γ-linolenic acid]",Conversion rate (in %) OtELO2.1,OtElo2.1 (Δ6-elongase),55.7%
same,% conversion rate,TpELO3 (Δ6-elongase),75%
same,elongation by Δ6-elongase PSE1 to DHGLA and DHSTA,[1],elongated almost quantitatively
same,% conversion rate,TL16y2; 250 μM fatty acid fed,74.9%
same,Conversion rate (in %) OtElo2,OtElo2 (Δ6-elongase),15.3%
"CC/C=C\C/C=C\C/C=C\C/C=C\C/C=C\CCCC(=O)O [20:5^Δ5,8,11,14,17, eicosapentaenoic acid]",elongation of 20:5 ω3 to 22:5 ω3,OmElo3,65%
same,Conversion rate (in %) OtElo1,OtElo1 (Δ5-elongase),46.8 ± 3.6%
same,% conversion rate,TpELO3 (Δ6-elongase); 250 μM of each fatty acid fed,0%
same,Conversion rate (in %) OtElo1.2,OtElo1.2 (Δ5-elongase),68.6%
same,% conversion rate,TpELO1 (Δ5-elongase),12.2%
same,% conversion rate,TL16y2; 50 μM fatty acid fed,41%
same,% conversion rate,TL16y2; 250 μM fatty acid fed,8%
"CCCCCC=CCC=CCC=CCC=CCCCCCC(=O)O [22:4^Δ7,10,13,16, docosatetraenoic acid]",conversion of fatty acid fed,PtELO6 (Δ6-elongase),not converted
same,Conversion of the starting materials by ELO(Ci) in %,ELO(Ci),0%
same,Conversion of the starting materials by ELO(XI) in %,ELO(XI),0%
"CCCCC/C=C\C/C=C\CC/C=C\CCCC(=O)O [18:3^Δ5,9,12, pinolenic acid]",Conversion of the starting materials by ELO(Ci) in %,ELO(Ci),38%
same,Conversion of the starting materials by ELO(XI) in %,ELO(XI),13%
"CC/C=C\C/C=C\C/C=C\C/C=C\CCCCC(=O)O [18:4^Δ6,9,12,15, stearidonic acid]",% Elongation,PtELO6 (Δ6-elongase),76.32%
same,Conversion rate (in %) OtELO2.1,"OtElo2.1 (Δ6-elongase); Table 16, yeast with pOTE2.1",70.4%
same,% conversion rate,TpELO3 (Δ6-elongase); 250 μM of each fatty acid fed,85%
same,elongation by Δ6-elongase PSE1 to DHGLA and DHSTA,[1],elongated almost quantitatively
same,% conversion rate,TL16y2; 250 μM fatty acid fed,79.4%
same,Conversion rate (in %) OtElo2,"OtElo2 (Δ6-elongase); Table 16, yeast with pOTE2",21.1%
same,elongation by OmElo3 to 20:4 ω3,[2],60%
"CCCCCCCCCCCCCCCCCC(=O)O [18:0, stearic acid]",Conversion of the starting materials by ELO(Ci) in %,ELO(Ci),0%
same,Conversion of the starting materials by ELO(XI) in %,ELO(XI),2%
"CC/C=C\C/C=C\C/C=C\CCCCCCCCCC(=O)O [20:3^Δ11,14,17]",conversion of fatty acid fed,PtELO6 (Δ6-elongase),not converted
same,Conversion of the starting materials by ELO(Ci) in %,ELO(Ci),8%
"CCCCCCCCCCCCCCCC(=O)O [16:0, palmitic acid]",Conversion of the starting materials by ELO(Ci) in %,ELO(Ci),0%
same,Conversion of the starting materials by ELO(XI) in %,ELO(XI),3%
"CCCCC/C=C\C/C=C\C/C=C\CCCCCCC(=O)O [20:3^Δ8,11,14, dihomo-γ-linolenic acid]",conversion of fatty acid fed,PtELO6 (Δ6-elongase),not converted
same,Conversion of the starting materials by ELO(Ci) in %,ELO(Ci),10%
same,Conversion of the starting materials by ELO(XI) in %,ELO(XI),5%
"CCCCC/C=C\C/C=C\C/C=C\C/C=C\CCCC(=O)O [20:4^Δ5,8,11,14, arachidonic acid]",Conversion of the starting materials by ELO(Ci) in %,ELO(Ci),10%
same,Conversion rate (in %) OtElo1,OtElo1 (Δ5-elongase),10.8 ± 0.6%
same,% conversion rate,TpELO3 (Δ6-elongase); 250 μM of each fatty acid fed,0%
same,Conversion rate (in %) OtElo1.2,OtElo1.2 (Δ5-elongase),38.0%
same,% conversion rate,TpELO1 (Δ5-elongase),1.7%
same,% conversion rate,TL16y2; 250 μM fatty acid fed,20.3%
same,Conversion of the starting materials by ELO(XI) in %,ELO(XI),15%
"eicosadienoic acid [20:2^Δ11,14]",conversion of fatty acid fed,PtELO6 (Δ6-elongase),not converted
"At3g06470: Arabidopsis thaliana elongase, SEQ ID NO: 137 (protein, listed as Arabidopsis thaliana, CDS (1)..(837) delta5-elongase) MASIYSSLTYWLVNHPYISNFTWIEGETLGSTVFFVSVVVSVYLSATFLLRSAIDSLPSLSPRILKPITAVHSLILCLLSLVMAVGCTLSITSSHASSDPMARFLHAICFPVDVKPNGPLFFWAQVFYLSKILEFGDTILIILGKSIQRLSFLHVYHHATVVVMCYLWLRTRQSMFPIALVTNSTVHVIMYGYYFLCAVGSRPKWKRLVTDCQIVQFVFSFGLSGWMLREHLFGSGCTGIWGWCFNAAFNASLLALFSNFHSKNYVKKPTREDGKKSD",Conversion rate of EPA,At3g06470,At3g06470: 4.1%
"At3g06460: Arabidopsis thaliana elongase, SEQ ID NO: 135 (protein, listed as Arabidopsis thaliana, CDS (1)..(897) delta5-elongase) MASVYSTLTYWLVHHPYIANFTWTEGETLGSTVFFVFVVVSLYLSATFLLRYTVDSLPTLGPRILKPITAVHSLILFLLSLTMAVGCTLSLISSSDPKARLFDAVCFPLDVKPKGPLFFWAQVFYLSKILEFVDTLLIILNKSIQRLSFLHVYHHATVVILCYLWLRTRQSMFPVGLVLNSTVHVIMYGYYFLCAIGSRPKWKKLVTNFQMVQFAFGMGLGAAWMLPEHYFGSGCAGIWTVYFNGVFTASLLALFYNFHSKNYEKTTTSPLYKIESFIFIHGERWANKAITLFSKKND",Conversion rate of EPA,At3g06460,At3g06460: 3.0%
"OmELO2: Oncorhynchus mykiss elongase gene product, SEQ ID NO: 51 (protein, Oncorhynchus mykiss; CDS (1)..(795) delta5-elongase) MASTWQSVQSMRQWILENGDKRTDPWLLVYSPMPVAIIFLLYLGVVWAGPKLMKRREPVDLKAVLIVYNFAMVCLSVYMFHEFLVTSLLSNYSYLCQPVDYSTSPLAMRMAKVCWWFFFSKVIELADTVFFILRKKNSQLTFLHVYHHGTMIFNWWAGVKYLAGGQSFFIGLLNTFVHIVMYSYYGLAALGPHTQKYLWWKRYLTSLQLLQFVLLTTHTGYNLFTECDFPDSMNAVVFAYCVSLIALFSNFYYQSYLNRKSKKT",elongase activity,OmELO2,no elongase activity
"PtD5: Phaeodactylum tricornutum Δ5-desaturase, SEQ ID NO: 5 (protein, listed as Phaeodactylum tricornutum, CDS (1)..(1410) delta5-desaturase) MAPDADKLRQRQTTAVAKHNAATISTQERLCSLSSLKGEEVCIDGIIYDLQSFDHPGGETIKMFGGNDVTVQYKMIHPYHTEKHLEKMKRVGKVTDFVCEYKFDTEFEREIKREVFKIVRRGKDFGTLGWFFRAFCYIAIFFYLQYHWVTTGTSWLLAVAYGISQAMIGMNVQHDANHGATSKRPWVNDMLGLGADFIGGSKWLWQEQHWTHHAYTNHAEMDPDSFGAEPMLLFNDYPLDHPARTWLHRFQAFFYMPVLAGYWLSAVFNPQILDLQQRGALSVGIRLDNAFIHSRRKYAVFWRAVYIAVNVIAPFYTNSGLEWSWRVFGNIMLMGVAESLALAVLFSLSHNFESADRDPTAPLKKTGEPVDWFKTQVETSCTYGGFLSGCFTGGLNFQVEHHLFPRMSSAWYPYIAPKVREICAKHGVHYAYYPWIHQNFLSTVRYMHAAGTGANWRQMARENPLTGRA",share of the elongase product desaturated by Δ5-desaturase PtD5,[1]; to ARA and EPA (FIGS. 21 B and D),25-30%
same,PtD5 activity (desaturation of 20:4 ω3 to 20:5 ω3),[2],15%
